pIC50: −log10 of the molar value. “And” between values parts separate entries of the source, which are not always exact repeats. Equal entries are not always repeated. Where two headings read alike, the source gives them in different places. Marks after values point to notes of the source that are not given here.
Key:
[1] = Plasma PK of total radioactivity, [14C]-nifurtimox and metabolites after oral dosing (HPLC-LSC); type: in vivo; conditions: male Wistar rats; for half-life / Tmax: rat; for half-life: read-out: t½ (converted)
Description: (§1) Animals were housed in suitable metabolism cages. […] Blood cells and plasma were separated by centrifugation. Plasma was stored at ≤-15°C prior to analysis. […] All biological samples were weighed immediately. […] The remaining carcass was also wet-weighed.
Aliquots of individual plasma samples were pooled separately for each timepoint by equal volume. For protein precipitation, pooled plasma was treated with a three-fold volume of acetonitrile. Samples were homogenized and precipitated by centrifugation (20,000 g, 5 min). Samples were concentrated and analyzed using high-performance liquid chromatography (HPLC) with off-line radioactivity detection by LSC (HPLC-LSC).

OATP1B3 = target: T1, OATP1B3 (Homo sapiens, UniProt Q9NPD5); assay: Uptake transporter inhibition; type: in vitro ADME; conditions: probe substrate pravastatin
T1 sequence (Q9NPD5 1-702): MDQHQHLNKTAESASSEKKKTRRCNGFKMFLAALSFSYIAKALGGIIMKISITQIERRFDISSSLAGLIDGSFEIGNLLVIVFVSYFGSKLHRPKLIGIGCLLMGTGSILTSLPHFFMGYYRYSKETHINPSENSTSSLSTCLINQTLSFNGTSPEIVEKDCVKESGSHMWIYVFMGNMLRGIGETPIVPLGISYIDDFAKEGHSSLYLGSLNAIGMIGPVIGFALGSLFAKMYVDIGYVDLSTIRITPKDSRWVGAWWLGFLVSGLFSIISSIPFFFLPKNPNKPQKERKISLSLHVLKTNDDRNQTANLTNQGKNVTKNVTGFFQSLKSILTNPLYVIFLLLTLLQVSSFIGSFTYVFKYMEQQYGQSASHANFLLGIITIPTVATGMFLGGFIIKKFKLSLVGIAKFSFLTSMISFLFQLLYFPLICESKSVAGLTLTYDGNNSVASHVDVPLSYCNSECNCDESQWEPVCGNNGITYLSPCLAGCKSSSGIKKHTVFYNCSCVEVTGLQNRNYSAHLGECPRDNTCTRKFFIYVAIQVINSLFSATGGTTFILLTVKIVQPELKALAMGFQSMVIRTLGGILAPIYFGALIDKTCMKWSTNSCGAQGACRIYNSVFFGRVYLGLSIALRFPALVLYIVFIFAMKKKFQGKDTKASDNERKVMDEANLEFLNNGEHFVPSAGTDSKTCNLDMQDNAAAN
From the text: (§2) The inhibition of cytochrome P450 (CYP) isoforms and a range of cellular transporters (except multidrug and toxin extrusion [MATE] proteins), as well as the induction of CYP isoforms were investigated using previously described methods.

OAT3 = target: T2, OAT3 (Homo sapiens, UniProt Q8TCC7); assay: Uptake transporter inhibition; type: in vitro ADME; conditions: probe substrate estrone-3-sulphate
T2 sequence (Q8TCC7 1-542): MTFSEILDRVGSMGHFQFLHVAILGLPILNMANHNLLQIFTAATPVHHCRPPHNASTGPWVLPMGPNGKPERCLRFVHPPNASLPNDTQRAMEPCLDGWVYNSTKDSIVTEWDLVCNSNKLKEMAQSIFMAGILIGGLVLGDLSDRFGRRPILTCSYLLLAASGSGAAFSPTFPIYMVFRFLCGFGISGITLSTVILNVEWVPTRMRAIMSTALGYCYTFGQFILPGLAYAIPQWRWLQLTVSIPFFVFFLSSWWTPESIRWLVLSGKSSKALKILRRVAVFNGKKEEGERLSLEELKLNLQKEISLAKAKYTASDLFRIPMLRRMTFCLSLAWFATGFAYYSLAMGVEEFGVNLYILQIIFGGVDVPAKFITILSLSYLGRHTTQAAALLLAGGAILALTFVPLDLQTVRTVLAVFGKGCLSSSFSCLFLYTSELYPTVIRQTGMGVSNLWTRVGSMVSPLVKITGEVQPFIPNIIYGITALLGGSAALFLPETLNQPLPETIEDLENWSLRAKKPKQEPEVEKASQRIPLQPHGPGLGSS
From the text: as §2

OAT1 = target: T3, OAT1 (Homo sapiens, UniProt Q4U2R8); assay: Uptake transporter inhibition; type: in vitro ADME; conditions: probe substrate p-aminohippuric acid
T3 sequence (Q4U2R8 1-563): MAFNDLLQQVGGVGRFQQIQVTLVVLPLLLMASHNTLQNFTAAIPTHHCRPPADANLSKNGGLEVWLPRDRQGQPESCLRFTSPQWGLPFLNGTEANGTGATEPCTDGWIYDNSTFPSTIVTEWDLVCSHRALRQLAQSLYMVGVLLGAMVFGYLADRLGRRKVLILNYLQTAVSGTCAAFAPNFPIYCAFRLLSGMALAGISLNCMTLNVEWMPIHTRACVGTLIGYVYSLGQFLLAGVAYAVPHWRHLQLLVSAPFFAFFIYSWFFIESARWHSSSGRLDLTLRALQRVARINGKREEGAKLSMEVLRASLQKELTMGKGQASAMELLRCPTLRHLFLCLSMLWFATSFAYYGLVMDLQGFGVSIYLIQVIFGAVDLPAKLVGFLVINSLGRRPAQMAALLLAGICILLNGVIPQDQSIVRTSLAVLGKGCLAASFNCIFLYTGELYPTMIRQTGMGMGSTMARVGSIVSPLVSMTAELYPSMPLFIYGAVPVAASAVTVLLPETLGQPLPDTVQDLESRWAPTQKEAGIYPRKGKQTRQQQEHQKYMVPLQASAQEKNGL
From the text: as §2

CYP 2C19 [2] = assay: CYP induction (mRNA and CYP activity); type: in vitro ADME, human
From the text: as §2

[3] = Mass balance and metabolite profiling in excreta after i.v. [14C]-nifurtimox in bile duct-cannulated (BDC) rats; type: in vivo, male Wistar rats; conditions: for administered dose secreted directly into the gut: gastrointestinal tract + feces
Description: as §1

[4] = Mass balance and metabolite profiling in excreta after oral [14C]-nifurtimox in intact rats; conditions: for component excreted in urine, oral dosing: intact male Wistar rats, 2.5 mg/kg oral; for component excreted in urine, oral dosing / radioactivity excreted in urine / radioactivity excreted in feces: up to 120 h
Description: After an adaption period, the animals were prepared for the study. Bile duct cannulation was performed on selected animals the day before their use in experiments.
In a mass balance study (n = 5) and a PK study (n = 2 per timepoint), 2.5 mg/kg b.w. […] For i.v. administration, 2.5 mg/kg b.w. […] In an additional stability study, male Wistar rats (n = 3 per timepoint) were administered 2.5 mg/kg b.w. […] The total radioactivity concentration in the dosage form was confirmed by liquid scintillation counting (LSC).
Animals were housed in suitable metabolism cages. Blood was collected from separate rats at 0.25, 0.5, 1, 1.5, 2, 3, 5, and 8 h post-dose and stored in lithium heparinized tubes. Blood cells and plasma were separated by centrifugation. Plasma was stored at ≤-15°C prior to analysis. […] At the end of the study, the cages were rinsed with water, and samples were collected. All biological samples were weighed immediately. Feces samples were homogenized with water to obtain a uniform radioactivity distribution. All samples were stored deep-frozen at ≤-15/-70°C before further processing. During the necropsy, selected organs and tissues were collected and wet-weighed. The remaining carcass was also wet-weighed. The carcass and all tissues were homogenized and stored at room temperature prior to processing for analysis. In the stability study, blood and urine were collected at 0.25 and 0.5 h post-dose. Plasma and urine were immediately frozen in liquid nitrogen and stored at -80°C to prevent degradation. The total radioactivity in samples and tissues was determined by LSC after appropriate sample preparation.
Aliquots of individual urine or bile samples were pooled separately for each time interval by equal volume and analyzed using HPLC-LSC. Aliquots of individual feces samples were pooled separately for each time interval, ensuring that each aliquot contained the same amount of radioactivity. The pooled samples were extracted twice with a mixture of acetonitrile/water (80:20 v/v, 2 x 0.5 mL). The resulting suspensions were centrifuged (20,000 g, 5 min), and the supernatants were then combined for each time interval, concentrated, and subjected to HPLC-LSC.
The amount of total radioactivity in urine, feces, bile, and tissues was determined by multiplying the volume or weight of the samples by the respective total radioactivity concentration. The amount of radioactivity recovered in the excreta (AE), cage wash, and tissues was compared with the administered radioactive dose to establish the radioactive balance. Cumulative excretion was calculated as the sum of the excretion for each collection interval. Arithmetic means and coefficients of variation (CV) were calculated for these percentages. During metabolite profiling, the concentration or amount of each analyte for each sample and timepoint or interval was calculated by multiplying the total radioactivity concentration or amount excreted of each sample with the percent area of each analyte obtained after HPLC-LSC separation.

CYP 2C19 [5] = target: CYP 2C19 (Homo sapiens, UniProt P33261); assay: CYP inhibition with probe substrate; type: in vitro ADME; conditions: probe substrate mephenytoin
From the text: as §2

[6] = single oral 2.5 mg/kg [14C]-nifurtimox, pooled plasma
[7] = BDC male Wistar rats, 2.5 mg/kg i.v., up to 24 h
[8] = 30-min preincubation, read-out: Pre- IC50 (+ NADPH)
[9] = coincubation, read-out: Co- IC50
[10] = total radioactivity, i.v. 2.5 mg/kg, BDC rats
[11] = total radioactivity, i.v. 2.5 mg/kg, BDC rats, 24 h
[12] = total radioactivity, i.v. 2.5 mg/kg, BDC rats, 24 h, listed as [^14C]-nifurtimox, 2.5 mg/kg
[13] = total radioactivity, i.v. 2.5 mg/kg, BDC rats, 24 h, listed as [14C]-nifurtimox, 2.5 mg/kg
[14] = total radioactivity, oral 2.5 mg/kg, intact rats
[15] = total radioactivity, oral 2.5 mg/kg, intact rats, listed as [^14C]-nifurtimox, 2.5 mg/kg

Chain of CYP 2C19 (Homo sapiens, UniProt P33261) (P33261 whole entry): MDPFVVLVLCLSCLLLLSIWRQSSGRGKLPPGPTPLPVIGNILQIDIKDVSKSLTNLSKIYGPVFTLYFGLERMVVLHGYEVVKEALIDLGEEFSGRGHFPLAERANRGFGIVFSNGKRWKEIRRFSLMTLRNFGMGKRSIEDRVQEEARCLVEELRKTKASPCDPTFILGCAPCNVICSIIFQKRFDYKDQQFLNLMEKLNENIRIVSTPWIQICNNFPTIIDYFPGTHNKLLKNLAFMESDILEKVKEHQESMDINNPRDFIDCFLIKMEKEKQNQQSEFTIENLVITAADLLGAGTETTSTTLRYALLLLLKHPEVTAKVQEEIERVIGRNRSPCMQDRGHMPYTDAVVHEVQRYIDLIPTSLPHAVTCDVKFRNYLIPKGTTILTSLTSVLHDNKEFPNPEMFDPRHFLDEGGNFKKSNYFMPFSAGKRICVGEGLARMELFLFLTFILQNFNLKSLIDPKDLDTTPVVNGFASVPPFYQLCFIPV

## CC1CS(=O)(=O)CCN1n1cc(SCC(N)C(=O)O)ccc1=O (stereo not drawn) [M-4]
[1]; oral 2.5 mg/kg, M-2+M-3, M-4, M-5 are estimates based on AUC(0-tn), 2.5 mg/kg
  %AUC(0-8) (relative to total radioactivity AUC(0-8)): 2.42^c %
[1]; [6]
  AUC: 791 µg-eq*h/L
  AUC(0-tn): 107 µg-eq*h/L
  Cmax: 48.3 µg-eq/L
  tn (time of last quantifiable concentration): 3 h
  Tmax: 30 min
[1]; single oral 2.5 mg/kg [14C]-nifurtimox, plasma, interval up to 8 h
  half-life: 738 min
OATP1B3
  pIC50: 5.00
OAT3
  pIC50: < 5.30
OAT1
  pIC50: < 5.30
CYP 2C19 [2]
  concentration up to which no induction (mRNA and CYP activity): up to 80000 µg/L
[3]; [7]
  component excreted in bile, i.v. dosing: 0.968 % of the administered dose
[4]
  component excreted in urine, oral dosing: no M-4 was detected
CYP 2C19 [5]; [8]
  pIC50: < 4.70
CYP 2C19 [5]; [9]
  pIC50: < 4.70
CYP 2C19 [5]
  TDI (time-dependent inhibition): No

## CC1CS(=O)(=O)CCN1/N=C/c1ccc([N+](=O)[O-])o1 (stereo not drawn) [Nifurtimox, (E)-N-(3-methyl-1,1-dioxo-1,4-thiazinan-4-yl)-1-(5-nitrofuran-2-yl) methanimine, reference compound]
[1]; single oral 2.5 mg/kg [14C]-nifurtimox, plasma, interval up to 8 h, 2.5 mg/kg
  t½: 1.44 h
[1]; [6]
  AUC: 1730 µg-eq*h/L
  AUC(0-8): 1680 µg-eq*h/L
  AUC(0-tn): 1570 µg-eq*h/L
  Cmax: 755 µg-eq/L
  tn (time of last quantifiable concentration): 5 h
  Tmax: 30 min
[1]; male, Wistar, plasma, po, 2.5 mg/kg, single oral 2.5 mg/kg [14C]-nifurtimox, plasma, interval up to 8 h
  half-life: 84 min
[1]; total radioactivity, oral 2.5 mg/kg
  tmax of radioactivity: 30 min
OATP1B3
  pIC50: < 4.30
OAT3
  pIC50: < 4.70
OAT1
  pIC50: < 4.70
[3]; [7]
  component excreted in urine, i.v. dosing: 0.847 % of the administered dose
[3]; BDC male Wistar rats, 2.5 mg/kg i.v., up to 24 h, 2.5 mg/kg
  component excreted in bile, i.v. dosing: 0.560 % of the administered dose
[3]; BDC male Wistar rats, 2.5 mg/kg i.v., up to 24 h, listed as nifurtimox, 2.5 mg/kg
  component excreted in bile, i.v. dosing: 0.6 % of the administered dose
[3]; [10]
  administered dose excreted in bile within 24 h: 17.7%
  administered dose excreted in urine within 24 h: 49.6%
  recovery of administered radioactivity at 24 h: 94.2%
[3]; [11]
  dose in residues (body excluding the GIT): 17.6%
  dose in the cage wash: 2.48%
[3]; total radioactivity, i.v. 2.5 mg/kg, BDC rats, 24 h, 2.5 mg/kg
  administered dose secreted directly into the gut: < 7%
[3]; [12]
  administered dose secreted directly into the gut: 6.9%
  dose excreted in feces: 2.5%
  dose present in the gastrointestinal tract including contents: 4.5%
[3]; [13]
  dose excreted in feces: 2.45%
  dose present in the gastrointestinal tract including contents: 4.45%
[4]; 2.5 mg/kg
  component excreted in urine, oral dosing: 0.117 % of the administered dose
[4]; listed as [^14C]-nifurtimox, 2.5 mg/kg
  component excreted in urine, oral dosing: 0.1 % of the administered dose
[4]; listed as nifurtimox, 2.5 mg/kg
  component excreted in urine, oral dosing: < 1 % of the administered dose
[4]; pooled urine 0-8 h post-dose, oral 2.5 mg/kg
  share of sample radioactivity in urine: 0.3 % of sample radioactivity
[4]; total radioactivity, 120 h after oral dosing
  total recovery including excreta, residues, and cage wash: 97.3%
[4]; [14]
  administered radioactivity excreted within 24 h: approximately 86%
  radioactivity excreted within 120 h (urine + feces): 92.4 % of dose
[4]; total radioactivity, oral 2.5 mg/kg, intact rats, 2.5 mg/kg
  radioactivity excreted in urine: 48.6 % of dose
[4]; total radioactivity, oral 2.5 mg/kg, intact rats, listed as [14C]-nifurtimox, 2.5 mg/kg
  radioactivity excreted in feces: 43.8 % of dose
[4]; [15]
  radioactivity excreted in feces: 43.8 % of dose and 49 % of dose
  radioactivity excreted in urine: 48.6 % of dose and 44 % of dose

## CC1CS(=O)(=O)CCN1N (stereo not drawn) [M-6]
OATP1B3
  pIC50: < 4.30
OAT3
  pIC50: < 4.52
OAT1
  pIC50: < 4.52
CYP 2C19 [2]
  concentration up to which no induction (mRNA and CYP activity): up to 90000 µg/L
CYP 2C19 [5]; [8]
  pIC50: < 4.00
CYP 2C19 [5]; [9]
  pIC50: < 4.00
CYP 2C19 [5]
  TDI (time-dependent inhibition): No

From article PMC10661964 (Current Drug Metabolism, 2023)
